{
  "source": "patent US20250186470A1",
  "about": "“Compositions and Methods Using Lactulose for Treating Disease” (THE UNIVERSITY OF CHICAGO, priority 2023, published 2025)",
  "key": {"[1]": {"tested_on": "B. longum", "method": "B. longum was grown in regular media (blue) or media supplemented with 50 mM lactulose (red) or sucrose (green). (A) pH before and after 24 h of growth (n=3 for 0 h; n=6 for 24 h). (B) SCFA concentrations after 24 h of growth. n=6 all conditions. […] Plots are representative of three independent experiments with ≥3 technical replicates all with consistent results. TCA: taurocholic acid, GCA: glycocholic acid, CA: cholic acid, CDCA: chenodeoxycholic acid, DCA: deoxycholic acid, and LCA: lithocholic acid. (E) Schematic of B. longum gavage, lactulose administration, and stool collection in ex-GF mice. […] (I-K) SCFA concentrations before and 10-days after Bifidobacteria inoculation. Each dot represents one sample from each mouse. […] (L) Primary, (M) conjugated primary, and (N) secondary BA were measured at indicated timepoints. Each dot represents one sample from each mouse. […] Short chain fatty acids (SCFA, i.e. butyrate, acetate, propionate, and succinate) were derivatized with pentafluorobenzyl bromide (PFBBr) and analyzed via negative ion collision induced-gas chromatography-mass spectrometry ([-]CI-GC-MS, Agilent 8890) 92. Eight bile acids (BA, i.e. primary: cholic acid; conjugated primary: glycocholic acid, taurocholic acid; secondary: deoxycholic acid, lithocholic acid [LCA], isodeoxycholic acid; modified secondary: alloisolithocholic acid [alloisoLCA] and 3-oxolithocholic acid [3-oxoLCA]) were quantified (μg/mL) by negative mode liquid chromatography-electrospray ionization-quadrupole time-of-flight-MS ([-]LC-ESI-QTOF-MS, Agilent 6546). […] All mouse studies were approved by The University of Chicago Institutional Animal Care and Use Committee (IACUC, Protocol 72599). For germ-free studies, 6-18 week-old male and female C57BL/6 mice were used."}, "[2]": {"tested_on": "B. longum", "assay": "B. longum growth, pH and SCFA in BHIS with 50 mM lactulose or sucrose", "assay_type": "cell-based, Bifidobacterium longum", "description": "FIGS. 4A-4D: Lactulose-mediated Bifidobacteria expansion is associated with exclusion of antibiotic-resistant Enterococcus species. (A) Relative abundance of potentially pathogenic taxa Enterococcus and Proteobacteria were plotted based on lactulose exposure (no lactulose, left; lactulose, right) and relative abundance of Bifidobacteria (<10%, blue; ≥10%, red). Each point represents a single sample with the following sample sizes: total n=262; no lactulose, <10%, n=79; no lactulose, ≥10%, n=24; lactulose, <10%, n=87; lactulose, ≥10%, n=72. Median and interquartile range are indicated by the horizontal line and box, respectively. The lower vertical line depicts Q1-1.5*IQR and the upper vertical line depicts Q3+1.5*IQR. Statistical comparisons between individual groups were analyzed using a two-tailed Wilcoxon rank sum test. P-values are adjusted for multiple comparisons using the Benjamini-Hochberg procedure and represented as follows: *, p<0.05; **, p<0.01; ***, p<0.001; ****, p<0.0001. (B) A human-derived B. longum species was grown in BHIS media (blue) or BHIS supplemented with 50 mM lactulose (red) or 50 mM sucrose (green), and growth curves (OD600 over time) are shown. […] This graph is representative of three independent experiments, also done in triplicate, all with consistent results. (C) Schematic of experimental design for B. longum (purple bacilli) and VRE (green cocci) co-culture. B. longum and VRE were grown to steady state and diluted to low density (OD600=0.05) prior to inoculation in either BHIS or BHIS supplemented with 50 mM lactulose. Cultures were inoculated with both bacteria simultaneously (top) or B. longum was given either a 24-hour or 48-hour lead time prior to VRE inoculation (bottom). (D) After 24-hours of co-culture, serial dilutions of three replicates were plated for VRE c.f.u. counts. Each replicate is plotted as an individual point, and the median is represented by the horizontal line. […]\n(C and D) Supernatant BA quantified after 24 h of B. longum growth in media containing 10 μg/ml conjugated primary BA ((C) TCA or (D) GCA). n=4 all conditions. […]"}, "[3]": {"conditions": "lactulose 10 days, B. longum colonized mice"}},
  "data": [
    {"smiles": "OC[C@H]1O[C@@H](O[C@@H]2[C@@H](CO)OC(O)(CO)[C@H]2O)[C@H](O)[C@@H](O)[C@H]1O", "note": "(mixture of isomers) [Lactulose, lactulose]", "values": [
      {"measurement": "Stool water content", "setting": "[1]; GF mice, 20 g/L lactulose in water", "value": "increased"},
      {"measurement": "Fecal acetate concentration", "setting": "[1]; [3]", "value": "elevated"},
      {"measurement": "Fecal conjugated BA concentrations", "setting": "[1]; [3]", "value": "reduced"},
      {"measurement": "Fecal unconjugated primary BA concentrations", "setting": "[1]; [3]", "value": "elevated"},
      {"measurement": "Lactulose in stool", "setting": "[1]; mouse, in vivo", "value": "detectable"},
      {"measurement": "Acetate in B. longum culture", "setting": "[2]; 50 mM lactulose, 24 h", "value": "acetate production"},
      {"measurement": "Media pH after B. longum growth", "setting": "[2]; 50 mM lactulose, 24 h", "value": "media acidification"},
      {"measurement": "B. longum culture growth (OD600)", "setting": "[2]; BHIS supplemented with 50 mM sugar", "value": "augmented"}
    ]}
  ]
}
